The text below walks through data of patent US10040791B2, “Isoxazole derivative as mutant isocitrate dehydrogenase 1 inhibitor” (Daiichi Sankyo Company, Limited, priority 2014, dated 2018).

Broadly, the IC50 is the midpoint of a concentration-inhibition curve.

Like-named read-outs stand apart in the source and are kept apart here.

One assay deals with IDH1R132C (Homo sapiens (Human), UniProt O75874, R132C). The assay can be described thus: Inhibitory activity against IDH1R132C enzyme (NADPH detection, WST-8). It is filed as biochemical. Conditions: 10 nM, residual NADPH detected with WST-8, read-out: Test Example 1 IDH1 R132C IC50. For orientation: Formazan colour is commonly taken as a measure of viable cells.
Sequence of IDH1R132C (O75874 whole entry R132C): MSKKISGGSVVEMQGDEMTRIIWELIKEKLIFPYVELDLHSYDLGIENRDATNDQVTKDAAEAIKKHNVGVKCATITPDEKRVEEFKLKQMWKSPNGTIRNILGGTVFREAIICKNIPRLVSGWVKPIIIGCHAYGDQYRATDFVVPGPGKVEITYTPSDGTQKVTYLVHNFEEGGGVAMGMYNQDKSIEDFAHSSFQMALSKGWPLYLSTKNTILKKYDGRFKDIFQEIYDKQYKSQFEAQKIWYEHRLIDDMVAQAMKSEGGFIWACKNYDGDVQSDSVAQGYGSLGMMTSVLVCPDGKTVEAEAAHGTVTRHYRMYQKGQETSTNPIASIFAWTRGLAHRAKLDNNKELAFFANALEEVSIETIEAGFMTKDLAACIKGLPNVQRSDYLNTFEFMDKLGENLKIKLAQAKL
For assay [1], the system named is HT1080 xenografted mice (IDH1R132C). Kind of assay: 2-HG production inhibitory activity using HT1080 xenografted mice. It is filed as in vivo, mouse. The conditions noted are these: for response vs control in vivo at 75 mg/kg: Mus musculus, HT-1080, po, 6 h, read-out: Test Example 5 Ratio (%). The procedure: HT1080 xenografted mice having successfully engrafted tumors were given by oral gavage each compound at 75 mg/kg a total of three times twice a day. The compound was suspended in a vehicle solution at 7.5 mg/mL using a homogenizer. Then, the suspension was stored at −20° C., thawed immediately before the administration, and given to mice. A negative control group for the test was given a vehicle by oral gavage. The body weights of the mice were measured using an automatic balance for small animals. The dosing solution was administered at a dose of 10 mL/kg body weight.
6 hours after the final administration, each mouse was euthanized with carbon dioxide. A portion of a tumor was collected, and its weight was measured using an electronic balance. Then, the tumor was frozen on dry ice. To the frozen tumor, methanol was added in an amount of 14 times the tumor weight. The resulting tumor was homogenized with Beads shocker (Yasui Kikai Corp.) and then incubated for 15 minutes in a freezer at −20° C. After centrifugation at 15000 rpm at 4° C. for 15 minutes using a high-speed refrigerated microcentrifuge, 250 μL of methanol and 400 μL of ultrapure water were added to 150 μL of the obtained supernatant. The prepared samples were subjected to 2-HG measurement.

The test system of assay [2] is HT-1080 cells expressing IDH1R132C. Kind of assay: 2-HG production inhibitory activity using HT1080 cell. Type of assay: cell-based, human. How it is done:
Then, 100 μL of growth medium B was added to each well, further 25 μL of a solution of each compound diluted to a predetermined concentration with growth medium B was added to each well, and the cells were incubated at 37° C. for 2 days under 5% CO2. […] Then, 150 μL of ultrapure water was further added to each well, and the mixture was stirred by pipetting and stored at −20° C.
The preserved solutions were thawed at room temperature.

Setting [3] is: 2-HG production, HT1080 xenografted mice.
Where [4] appears, read: Homo sapiens, HT-1080, 2-HG production, HT1080 cells, read-out: Test Example 3 IC50.

As to `Cc1cn(C(=O)c2c(-c3c(F)cc(Cl)cc3Cl)noc2C(C)(C)F)c2cccc(/C=C/C(=O)O)c12` [Example 47, (2E)-3-(1-{[3-(2,4-Dichloro-6-fluorophenyl)-5-(2-fluoropropan-2-yl)-1,2-oxazol-4-yl]carbonyl}-3-methyl-1H-indol-4-yl)prop-2-enoic acid], the 50% inhibitory concentration (IC50) at IDH1R132C is 98 nM; in assay [2] (setting [4]) it was 62 nM. Besides, the response vs control in vivo at 75 mg/kg in assay [1] (setting [3]) came to 17%.

As to `CC(C)(C)c1onc(-c2c(Cl)cc(Cl)cc2Cl)c1C(=O)n1ccc2c(/C=C/C(=O)O)ccc(F)c21` [Example 48], the IC50 on IDH1R132C amounted to 193 nM; in assay [2] (2-HG production, HT1080 cells, read-out: Test Example 3 IC50), 115 nM. Moreover, the “Test Example 5 Ratio (%)” value in assay [1] (setting [3]) amounted to 72%.

On to `Cc1cn(C(=O)c2c(-c3c(Cl)cc(F)cc3Cl)noc2C(C)(C)F)c2cccc(/C=C/C(=O)O)c12` [Example 49, (2E)-3-(1-{[3-(2,6-Dichloro-4-fluorophenyl)-5-(2-fluoropropan-2-yl)-1,2-oxazol-4-yl]carbonyl}-3-methyl-1H-indol-4-yl)prop-2-enoic acid], for which the IC50 was found to be 79 nM at IDH1R132C and 119 nM in assay [2] (setting [4]). Besides, in assay [1] (setting [3]), the response vs control in vivo at 75 mg/kg turned out to be 44%.

On to `Cc1cn(C(=O)c2c(-c3c(Cl)cc(Cl)cc3Cl)noc2C(C)(C)F)c2c(F)ccc(/C=C/C(=O)O)c12` [Example 50, (2E)-3-(7-Fluoro-1-{[5-(2-fluoropropan-2-yl)-3-(2,4,6-trichlorophenyl)-1,2-oxazol-4-yl]carbonyl}-3-methyl-1H-indol-4-yl)prop-2-enoic acid], for which the half-maximal inhibitory concentration (IC50) on IDH1R132C was found to be 104 nM; in assay [2] (setting [4]) it was 173 nM. Further, the response vs control in vivo at 75 mg/kg in assay [1] (setting [3]) came out at 84%.

As for `Cc1cn(C(=O)c2c(-c3c(Cl)cc(Cl)cc3Cl)noc2C(C)(F)F)c2cccc(/C=C/C(=O)O)c12` [Example 51, (2E)-3-(1-{[5-(1,1-Difluoroethyl)-3-(2,4,6-trichlorophenyl)-1,2-oxazol-4-yl]carbonyl}-3-methyl-1H-indol-4-yl)prop-2-enoic acid], the IC50 on IDH1R132C came out at 115 nM; in assay [2] (Homo sapiens, HT-1080, read-out: Test Example 3 IC50 (nM)) it was 83 nM. Also, the response vs control in vivo at 75 mg/kg in assay [1] was 52%.

Regarding `Cc1cn(C(=O)c2c(-c3c(F)cccc3Cl)noc2C(C)(C)F)c2cccc(/C=C/C(=O)O)c12` [Example 52, (2E)-3-(1-{[3-(2-Chloro-6-fluorophenyl)-5-(2-fluoropropan-2-yl)-1,2-oxazol-4-yl]carbonyl}-3-methyl-1H-indol-4-yl)prop-2-enoic acid], the results for the 50% inhibitory concentration (IC50) (at IDH1R132C; in assay [2] (setting [4])) were 136 nM and 263 nM, respectively. In addition, the response vs control in vivo at 75 mg/kg in assay [1] (setting [3]) was 71%.

As for `Cc1cn(C(=O)c2c(-c3c(Cl)cccc3Cl)noc2C(C)(C)F)c2cccc(/C=C/C(=O)O)c12` [Example 53, (2E)-3-(1-{[3-(2,6-Dichlorophenyl)-5-(2-fluoropropan-2-yl)-1,2-oxazol-4-yl]carbonyl}-3-methyl-1H-indol-4-yl)prop-2-enoic acid], the IC50 at IDH1R132C turned out to be 163 nM; in assay [2] (setting [4]), 146 nM. Moreover, in assay [1] (setting [3]), the response vs control in vivo at 75 mg/kg worked out at 60%.

For `Cc1cn(C(=O)c2c(-c3c(F)cc(Cl)cc3F)noc2C(C)(C)F)c2cccc(/C=C/C(=O)O)c12` [Example 54, (2E)-3-(1-{[3-(4-Chloro-2,6-difluorophenyl)-5-(2-fluoropropan-2-yl)-1,2-oxazol-4-yl]carbonyl}-3-methyl-1H-indol-4-yl)prop-2-enoic acid], the IC50 at IDH1R132C is 109 nM; in assay [2] (setting [4]), 90 nM. In addition, the “Test Example 5 Ratio (%)” value in assay [1] (setting [3]) stood at 16%.

Consider `Cc1cc(Cl)cc(C)c1-c1noc(C(C)(C)F)c1C(=O)n1cc(C)c2c(/C=C/C(=O)O)cccc21` [Example 55, (2E)-3-(1-{[3-(4-Chloro-2,6-dimethylphenyl)-5-(2-fluoropropan-2-yl)-1,2-oxazol-4-yl]carbonyl}-3-methyl-1H-indol-4-yl)prop-2-enoic acid], for which the values for the half-maximal inhibitory concentration (IC50) (on IDH1R132C; in assay [2] (setting [4])) were 125 nM and 62 nM, respectively. Also, the response vs control in vivo at 75 mg/kg in assay [1] (setting [3]) worked out at 15%.

In the case of `Cc1cc(Cl)c(-c2noc(C(C)(C)F)c2C(=O)n2cc(C)c3c(/C=C/C(=O)O)cccc32)c(Cl)c1` [Example 56, (2E)-3-(1-{[3-(2,6-Dichloro-4-methylphenyl)-5-(2-fluoropropan-2-yl)-1,2-oxazol-4-yl]carbonyl}-3-methyl-1H-indol-4-yl)prop-2-enoic acid], the IC50 on IDH1R132C came out at 107 nM; in assay [2] (setting [4]) it was 52 nM. The response vs control in vivo at 75 mg/kg in assay [1] (setting [3]) was 28%.

Regarding `COC1(c2onc(-c3c(Cl)cc(Cl)cc3Cl)c2C(=O)n2cc(C)c3c(/C=C/C(=O)O)cccc32)CC1` [Example 57, (2E)-3-(1-{[5-(1-Methoxycyclopropyl)-3-(2,4,6-trichlorophenyl)-1,2-oxazol-4-yl]carbonyl}-3-methyl-1H-indol-4-yl)prop-2-enoic acid], the figures for the IC50 (at IDH1R132C; in assay [2] (setting [4])) were 98 nM and 26 nM, respectively. In addition, the response vs control in vivo at 75 mg/kg in assay [1] (setting [3]) stood at 12%.

With `Cc1cc(Cl)cc(Cl)c1-c1noc(C(C)(C)F)c1C(=O)n1cc(C)c2c(/C=C/C(=O)O)cccc21` [Example 59, (2E)-3-(1-{[3-(2,4-Dichloro-6-methylphenyl)-5-(2-fluoropropan-2-yl)-1,2-oxazol-4-yl]carbonyl}-3-methyl-1H-indol-4-yl)prop-2-enoic acid], the IC50 at IDH1R132C was found to be 117 nM; in assay [2] (setting [4]), 56 nM. In addition, the response vs control in vivo at 75 mg/kg in assay [1] (setting [3]) was determined as 10%.

For `Cc1cc(C)c(-c2noc(C(C)(C)F)c2C(=O)n2cc(C)c3c(/C=C/C(=O)O)cccc32)c(C)c1` [Example 60, (2E)-3-(1-{[5-(2-Fluoropropan-2-yl)-3-(2,4,6-trimethylphenyl)-1,2-oxazol-4-yl]carbonyl}-3-methyl-1H-indol-4-yl)prop-2-enoic acid], the half-maximal inhibitory concentration (IC50) on IDH1R132C worked out at 116 nM; in assay [2] (setting [4]), 92 nM. In addition, the response vs control in vivo at 75 mg/kg in assay [1] (setting [3]) was determined as 9%.

For `Cc1cn(C(=O)c2c(-c3ccc(Cl)cc3Cl)noc2C(C)(C)F)c2cccc(/C=C/C(=O)O)c12` [Example 62, (2E)-3-(1-{[3-(2,4-Dichlorophenyl)-5-(2-fluoropropan-2-yl)-1,2-oxazol-4-yl]carbonyl}-3-methyl-1H-indol-4-yl)prop-2-enoic acid], the IC50 at IDH1R132C was determined as 155 nM; in assay [2] (setting [4]), 69 nM. In addition, in assay [1] (setting [3]), the “Test Example 5 Ratio (%)” value amounted to 10%.

Regarding `Cc1cn(C(=O)c2c(-c3cc(F)c(Cl)cc3Cl)noc2C(C)(C)F)c2cccc(/C=C/C(=O)O)c12` [Example 63, (2E)-3-(1-{[3-(2,4-Dichloro-5-fluorophenyl)-5-(2-fluoropropan-2-yl)-1,2-oxazol-4-yl]carbonyl}-3-methyl-1H-indol-4-yl)prop-2-enoic acid], the IC50 amounted to 145 nM on IDH1R132C and 193 nM in assay [2] (setting [4]). Besides, the response vs control in vivo at 75 mg/kg in assay [1] (setting [3]) is 31%.

For `CCc1cn(C(=O)c2c(-c3c(Cl)cc(Cl)cc3Cl)noc2C(C)(C)F)c2cccc(/C=C/C(=O)O)c12` [Example 65, (2E)-3-(3-Ethyl-1-{[5-(2-fluoropropan-2-yl)-3-(2,4,6-trichlorophenyl)-1,2-oxazol-4-yl]carbonyl}-1H-indol-4-yl)prop-2-enoic acid], the 50% inhibitory concentration (IC50) amounted to 198 nM at IDH1R132C and 93 nM in assay [2] (setting [4]). Besides, the response vs control in vivo at 75 mg/kg in assay [1] (setting [3]) is 65%.

For the molecule `CC(C)(F)c1onc(-c2c(Cl)cc(Cl)cc2Cl)c1C(=O)n1cc(Cl)c2c(/C=C/C(=O)O)cccc21` [Example 66, (2E)-3-(3-Chloro-1-{[5-(2-fluoropropan-2-yl)-3-(2,4,6-trichlorophenyl)-1,2-oxazol-4-yl]carbonyl}-1H-indol-4-yl)prop-2-enoic acid], the IC50 on IDH1R132C was found to be 122 nM; in assay [2] (setting [4]) it was 59 nM. Besides, the response vs control in vivo at 75 mg/kg in assay [1] (setting [3]) is 49%.

Take `CC(C)(F)c1onc(-c2c(Cl)cc(Cl)cc2Cl)c1C(=O)n1cc2c3c(c(F)ccc31)/C(=C/C(=O)O)CC2` [Example 67, (2E)-[6-Fluoro-1-{[5-(2-fluoropropan-2-yl)-3-(2,4,6-trichlorophenyl)-1,2-oxazol-4-yl]carbonyl}-3,4-dihydrobenzo[cd]indol-5(1H)-ylidene]ethanoic acid]: the concentration for half-maximal inhibition (IC50) at IDH1R132C was determined as 154 nM; in assay [2] (setting [4]), 95 nM. The response vs control in vivo at 75 mg/kg in assay [1] (setting [3]) was determined as 27%.

Take `Cc1cn(C(=O)c2c(-c3c(Cl)cc(Br)cc3Cl)noc2C(C)(C)F)c2cccc(/C=C/C(=O)O)c12` [Example 68, (2E)-3-(1-{[3-(4-Bromo-2,6-dichlorophenyl)-5-(2-fluoropropan-2-yl)-1,2-oxazol-4-yl]carbonyl}-3-methyl-1H-indol-4-yl)prop-2-enoic acid]: the concentration for half-maximal inhibition (IC50) on IDH1R132C worked out at 125 nM; in assay [2] (setting [4]), 32 nM. In assay [1] (setting [3]), the response vs control in vivo at 75 mg/kg was determined as 47%.
